Experimental data from PMC9267128, “New 2-[(4-Amino-6-N-substituted-1,3,5-triazin-2-yl)methylthio]-N-(imidazolidin-2-ylidene)-4-chloro-5-methylbenzenesulfonamide Derivatives, Design, Synthesis and Anticancer Evaluation” (International Journal of Molecular Sciences, 2022).
“Also recorded” adds a separate entry of the source.

Tests used:
[1] = tested on: HeLa (cervical cancer); experiment: MTT cell viability assay, HeLa; format: cell-based, human; details: for IC50: Homo sapiens, HeLa, MTT assay, 72 h of incubation; for Selectivity Index (SI) HeLa: IC50 value toward HaCaT cells/IC50 value toward HeLa
Outline: (§1)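 HCT-116 and HeLa cells in DMEM/10% FBS exposed 72 h to compounds over 1–100 µM. Viability by MTT (0.5 mg/mL, 2 h, 37 °C), formazan dissolved in DMSO and read at 550 nm; mean ± SD of at least three independent experiments.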

[2] = tested on: MCF-7 (breast cancer); experiment: MTT cell viability assay, MCF-7; format: cell-based, human; details: for IC50: MTT assay, 72 h of incubation; for Selectivity Index (SI) MCF-7: IC50 value toward HaCaT cells/IC50 value toward MCF-7
Outline: (§2)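 Cells in DMEM with 10% FBS, 3 × 10^3 per well, exposed to compounds at 1–100 µM for 72 h at 37 °C. MTT at 0.5 mg/mL for 2 h, formazan dissolved in DMSO and read at 550 nm. Mean ± SD of at least three independent experiments, each in triplicate.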

[3] = tested on: HCT-116 (colon cancer); experiment: MTT cell viability assay, HCT-116; format: cell-based, human; details: for IC50: MTT assay, 72 h of incubation; for Selectivity Index (SI) HCT-116: IC50 value toward HaCaT cells/IC50 value toward HCT-116
Outline: as §1

[4] = tested on: HCT-116, MCF-7 and HeLa; experiment: MTT cytotoxicity, summary statements on all tested tumor cell lines together; format: cell-based, human; details: MTT 72 h
Description: Compounds 20–162 were evaluated in vitro for their effects on the viability of three cancer cell lines: HCT-116 (colon cancer), MCF-7 (breast cancer) and HeLa (cervical cancer), as well as the non-cancerous keratinocyte cell line (HaCaT). […] Analysis was performed using an MTT assay after 72 h of incubation.
(§3) Cell viability was examined using the MTT [3-(4,5-dimethylthiazol-2-yl)-2,5-diphenyltetrazolium bromide] assay. Cells were seeded in 96-well plates at a density of 3 × 10^3 cells/well and treated for 72 h with the tested compounds in the concentration range of 1–100 µM. Then, MTT (0.5 mg/mL) was added to the medium and cells were further incubated for 2 h at 37 °C. In the next stage, cells were lysed with DMSO and the absorbance of the formazan solution was measured at 550 nm with a plate reader (1420 multilabel counter, Victor, Jügesheim, Germany). The experiment was performed in triplicate. Values are expressed as the mean ± SD of at least three independent experiments. Cisplatin was used as a positive control.

[5] = tested on: SKOV3 (ovarian carcinoma cell line); experiment: MTT assay, mutant p53 ovarian cancer cells SKOV-3; format: cell-based
Description: (§4) Thus, the ability of the selected compounds to exert cytotoxic activity toward cell lines harboring mutant p53 was examined. Compounds displaying a high selectivity index (Table 6) were selected for the analysis of their activity toward ovarian and breast cancer cells with wild-type p53 (A2780, MCF-7) and mutant p53 (SKOV-3, T47D).
as §3
(§5) Compounds 48, 62, 134, 138 and 140 were further examined toward MCF7 (breast cancer cell line, ATCC, HTB-22), T47D (breast cancer cell line, DSMZ ACC 739), A2780 (ovarian carcinoma cell line, ECACC, 93112519), and SKOV3 (ovarian carcinoma cell line, ATCC, HTB-77) cells. Cells were grown in Dulbecco’s Modified Eagle Medium (DMEM) supplemented with 10% fetal bovine serum (Thermo Fisher Scientific).

[6] = tested on: A2780 (ovarian carcinoma cell line); experiment: MTT assay, wild-type p53 ovarian cancer cells A2780; format: cell-based
Description: as §4, §3, §5

[7] = tested on: HaCaT (human keratinocyte cell line); experiment: MTT cell viability assay, non-cancerous HaCaT; format: cell-based; details: 72 h of incubation, non-cancerous keratinocytes
Outline: as §2

[8] = tested on: MDM2-p53 interactions; experiment: Western blot of MDM2 and p53 protein levels in MCF-7 cells; format: cell-based, human; details: 4 µM and 10 µM, 24-h incubation
Description: Thus, the effects of the examined compounds on the inhibition of MDM2-p53 interactions were examined. MDM2 and p53 protein levels were determined with Western blot analysis after the treatment of MCF-7 cells with compounds selected for their high selectivity index (48, 62, 134, 138, and 140). Compounds were examined at different concentrations (4 µM and 10 µM) following a 24-h incubation (Figure 7).
Proteins were transferred to an Immobilon-P PVDF membrane (Merck Millipore, Burlington, MA, USA). The membranes were incubated for 1 h using 5% low-fat milk solution in 1× TBS (50 mM Tris-Cl, pH 7.5, 150 mM NaCl) as a blocking buffer and then overnight at 4 °C in the same blocking solution containing one of the following antibodies: anti-MDM2 (rabbit, Sigma-Aldrich AB-166, Burlington, MA, USA), anti-p53 (rabbit, Sigma-Aldrich S15) or α-tubulin (rabbit, 11H10, Cell Signaling, Danvers, MA, USA). After washing (3 × 10 min in TBS), membranes were incubated for 2 h in room temperature with the adequate HRP-conjugated secondary antibody: goat anti-rabbit IgG (1:5000, Abcam, Cambridge, UK; cat. 97051). Membranes were developed using an HRP detection kit WesternBright Quantum (Advansta, San Jose, CA, USA; cat. K-12042).

[9] = tested on: MCF7 (breast cancer cell line, ATCC, HTB-22); experiment: MTT assay, wild-type p53 breast cancer cells MCF-7 (Table 11); format: cell-based, human; details: 72 h of incubation, wild-type p53, second determination
Description: as §4, §3, §5

[10] = tested on: T47D (breast cancer cell line); experiment: MTT assay, mutant p53 breast cancer cells T47D; format: cell-based; details: 72 h of incubation
Description: as §4, §3, §5

[11] = Homo sapiens, SK-OV-3, 72 h of incubation
[12] = Homo sapiens, A2780, 72 h of incubation

SMILES	IC50 [1] [µM]	IC50 ([2]; Homo sapiens, MCF7, 72 h) [µM]	IC50 ([3]; Homo sapiens, HCT-116, 72 h) [µM]	IC50 ([7]; Homo sapiens, HaCaT, 72 h) [µM]	further results
Cc1cc(S(=O)(=O)N=C2NCCN2)c(SCc2nc(N)nc(N3CCN(C)CC3)n2)cc1Cl [Compound 30]	153 ± 5	145 ± 7	170 ± 3	–	cytotoxic activity for all tested cell lines (in words) [4]: inactive
Cc1cc(S(=O)(=O)N=C2NCCN2Cc2ccccc2)c(SCc2nc(N)nc(N3CCN(c4ccc(Cl)cc4)CC3)n2)cc1Cl [Compound 62]	107 ± 1	7 ± 0.1	6 ± 0.1	32 ± 1	Selectivity Index (SI) HeLa [1]: 0.3; IC50 [5, 11]: 10.1 ± 0.1 µM; IC50 [6, 12]: 3.9 ± 0.1 µM; Selectivity Index (SI) MCF-7 [2]: 4.5; MDM2 and p53 protein levels [8]: no changes; IC50 ([9]; Homo sapiens, MCF7): 10.4 ± 0.1 µM; IC50 ([10]; Homo sapiens, T47D): 4.9 ± 0.1 µM; Selectivity Index (SI) HCT-116 [3]: 5.3
Cc1cc(S(=O)(=O)N=C2NCCN2Cc2ccccc2)c(SCc2nc(N)nc(N3CCN(c4ccc([N+](=O)[O-])cc4)CC3)n2)cc1Cl [Compound 67]	140 ± 7	153 ± 5	168 ± 8	–	cytotoxic activity for all tested cell lines (in words) [4]: inactive; also recorded: loss of activity
Cc1cc(S(=O)(=O)N=C2NCCN2Cc2ccccc2)c(SCc2nc(N)nc(N3CCN(S(=O)(=O)c4ccccc4)CC3)n2)cc1Cl [Compound 70]	550 ± 21	490 ± 10	300 ± 18	–	cytotoxic activity for all tested cell lines (in words) [4]: loss of activity
Cc1ccc(S(=O)(=O)N2CCN(c3nc(N)nc(CSc4cc(Cl)c(C)cc4S(=O)(=O)N=C4NCCN4Cc4ccccc4)n3)CC2)cc1 [Compound 71]	265 ± 8	205 ± 4	155 ± 6	27 ± 1	cytotoxic activity for all tested cell lines (in words) [4]: loss of activity
Cc1cc(S(=O)(=O)N=C2NCCN2Cc2ccc(C(F)(F)F)cc2)c(SCc2nc(N)nc(N(C)C)n2)cc1Cl [Compound 118]	115 ± 2	10 ± 0.5	105 ± 4	> 500	cytotoxic activity for all tested cell lines (in words) [4]: inactive
Cc1cc(S(=O)(=O)N=C2NCCN2Cc2ccc(C(F)(F)F)cc2)c(SCc2nc(N)nc(N3CCN(c4ccc(C(F)(F)F)cc4)CC3)n2)cc1Cl [Compound 134]	10 ± 0.6	11 ± 0.1	5 ± 0.2	22 ± 1	Selectivity Index (SI) HeLa [1]: 2.2; IC50 [5, 11]: 5.7 ± 0.1 µM; IC50 [6, 12]: 3.9 ± 0.1 µM; Selectivity Index (SI) MCF-7 [2]: 2.0; MDM2 and p53 protein levels [8]: no changes; IC50 ([9]; Homo sapiens, MCF7): 7.8 ± 0.1 µM; IC50 ([10]; Homo sapiens, T47D): 3.2 ± 0.1 µM; Selectivity Index (SI) HCT-116 [3]: 4.4
Cc1cc(S(=O)(=O)N=C2NCCN2Cc2ccc(C(F)(F)F)cc2)c(SCc2nc(N)nc(N3CCN(c4ccc(Cl)c(Cl)c4)CC3)n2)cc1Cl [Compound 138]	9 ± 0.6	9 ± 0.5	6 ± 0.2	22 ± 1	IC50 [5, 11]: 5.8 ± 0.1 µM; IC50 [6, 12]: 2.2 ± 0.1 µM; MDM2 and p53 protein levels [8]: no changes; IC50 ([9]; Homo sapiens, MCF7): 8.2 ± 0.1 µM; IC50 ([10]; Homo sapiens, T47D): 4.4 ± 0.1 µM
Cc1cc(S(=O)(=O)N=C2NCCN2Cc2cc(C(F)(F)F)cc(C(F)(F)F)c2)c(SCc2nc(N)nc(N3CCN(c4cccc(C(F)(F)F)c4)CC3)n2)cc1Cl [Compound 153]	9 ± 0.5	8 ± 0.2	6 ± 0.3	19 ± 0.5	–
Cc1cc(S(=O)(=O)N=C2NCCN2Cc2cc(C(F)(F)F)cc(C(F)(F)F)c2)c(SCc2nc(N)nc(N3CCN(c4ccc(Cl)cc4)CC3)n2)cc1Cl [Compound 154]	12 ± 1	6.5 ± 0.2	5 ± 0.1	26 ± 1	–
Cc1cc(S(=O)(=O)N=C2NCCN2Cc2cc(C(F)(F)F)cc(C(F)(F)F)c2)c(SCc2nc(N)nc(N3CCN(c4ccc(Cl)c(Cl)c4)CC3)n2)cc1Cl [Compound 155]	10 ± 0.1	6 ± 0.1	5 ± 0.1	19 ± 1	–
Cc1cc(S(=O)(=O)N=C2NCCN2Cc2cc(C(F)(F)F)cc(C(F)(F)F)c2)c(SCc2nc(N)nc(N3CCN(Cc4ccccc4)CC3)n2)cc1Cl [Compound 156]	5.5 ± 0.2	7.5 ± 0.4	4.8 ± 0.1	17 ± 1	–
Cc1cc(S(=O)(=O)N=C2NCCN2Cc2cc(C(F)(F)F)cc(C(F)(F)F)c2)c(SCc2nc(N)nc(N3CCC(Cc4ccccc4)CC3)n2)cc1Cl [Compound 157]	13 ± 0.5	6 ± 0.3	5 ± 0.1	23 ± 1	Selectivity Index (SI) HeLa [1]: 1.7; Selectivity Index (SI) MCF-7 [2]: 3.8; Selectivity Index (SI) HCT-116 [3]: 4.6
Cc1cc(S(=O)(=O)N=C2NCCCN2Cc2ccc(C(F)(F)F)cc2)c(SCc2nc(N)nc(N3CCCc4ccccc43)n2)cc1Cl [Compound 158]	6 ± 0.3	8 ± 0.4	5 ± 0.3	17 ± 1	–
Cc1cc(S(=O)(=O)N=C2NCCCN2Cc2ccc(C(F)(F)F)cc2)c(SCc2nc(N)nc(N3CCN(c4ccccc4)CC3)n2)cc1Cl [Compound 159]	15.5 ± 0.5	10 ± 0.3	9 ± 0.5	29 ± 1	–
Cc1cc(S(=O)(=O)N=C2NCCCN2Cc2ccc(C(F)(F)F)cc2)c(SCc2nc(N)nc(N3CCN(c4cccc(C(F)(F)F)c4)CC3)n2)cc1Cl [Compound 160]	8.5 ± 0.3	12 ± 0.5	10.5 ± 0.4	23 ± 1	–
Cc1cc(S(=O)(=O)N=C2NCCCN2Cc2ccc(C(F)(F)F)cc2)c(SCc2nc(N)nc(N3CCN(c4ccc(Cl)cc4)CC3)n2)cc1Cl [Compound 161]	14 ± 0.5	6.5 ± 0.2	6.5 ± 0.1	27 ± 1	–
Cc1cc(S(=O)(=O)N=C2NCCCN2Cc2ccc(C(F)(F)F)cc2)c(SCc2nc(N)nc(N3CCN(Cc4ccccc4)CC3)n2)cc1Cl [Compound 162]	12.5 ± 0.5	6 ± 0.2	< 6	25 ± 0.7	Selectivity Index (SI) HeLa [1]: 2.0; Selectivity Index (SI) MCF-7 [2]: 4.1; Selectivity Index (SI) HCT-116 [3]: 4.5; IC50 [3]: 5.5 ± 0.3 µM
N.N.[Cl][Pt][Cl] [cisplatin, reference compound]	–	–	–	–	IC50 ([5]; 72 h of incubation): 71 ± 0.1 µM; IC50 ([6]; 72 h of incubation): 1.4 ± 0.1 µM; IC50 [7]: 7.7 ± 0.2 µM; IC50 [2]: 3 ± 0.1 µM; IC50 [9]: 3 ± 0.1 µM; IC50 [10]: 3.1 ± 0.1 µM
